Patent EP4800015A1, “AZABICYCLO DERIVATIVE AND PREPARATION METHOD THEREFOR, AND USE” (Zhejiang Hisun Pharmaceutical Co., Ltd., priority 2023, dated 2025)

What was measured:
recombinant human WRN = target: T1, recombinant human WRN (Homo sapiens, UniProt Q14191); experiment: Inhibition of WRN enzyme activity (ATPase), ADP-Glo Kinase Assay; format: biochemical; conditions: WRN protein 5 nM, Flap 0.1 nM, ATP 30 µM; read-out: IC50
T1 construct: purchased BPS 101264
Procedure, shortened: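 ATPase activity was measured by ADP-Glo luminescence after a 10-min room-temperature reaction with 30 µM ATP and 0.1 nM Flap26 oligonucleotide substrate. The 5 nM WRN had first been exposed to compound (0.004–1000 nM) for 15 min in pH 7.5 Tris buffer with 2 mM MgCl2. IC50 values came from log-concentration regression against the DMSO control.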

RL95-2 cells = experiment: Inhibition of RL95-2 cell proliferation (CellTiter-Glo); format: cell-based; conditions: Homo sapiens; RL95-2 cells (MSI-H), 120 hours
Protocol: (§1) The following method was used to determine the effect of the compounds of the present disclosure on RL95-2 cell proliferation. RL95-2 cells (MSI-H cells) were purchased from Cell Resource Center of Shanghai Institutes for Biological Sciences, Chinese Academy of Sciences, and cultured in DMEM/F12 medium (Gibco, catalog No. A4192001) containing 10% fetal bovine serum, 100 U penicillin, and 100 µg/mL streptomycin. Cell viability was determined by CellTiter-Glo® Luminescent Cell Viability Assay kit (Promega, catalog No. G7573).
(§2) The experiment was performed according to the steps of the kit manual, which is briefly described as follows: test compounds were first dissolved in DMSO to prepare 10 mM stock solutions, and then diluted with medium to prepare test samples, with final compound concentrations ranging from 10000 nM to 1.52 nM. Cells in logarithmic growth phase were seeded into 96-well cell culture plates at a density of 500 cells per well and cultured overnight at 37 °C in a 5% CO2 incubator, and then test compounds were added and cultivation continued for 120 hours. After the cultivation was completed, 50 µL of CellTiter-Glo detection reagent was added to each well, shaken for 5 minutes, and then left to stand for 10 minutes. Luminescence values of each well were read on a microplate reader using Luminescence mode. The percentage inhibition at each concentration point was calculated by comparison with the control group (0.1% DMSO), and then IC50 values for the compounds for inhibition of cell proliferation were obtained using nonlinear regression analysis of compound concentration logarithm versus inhibition rate in GraphPad Prism 9 software, as shown in Table 3.
The IC50 value results of the compounds of the present disclosure are represented by A, wherein "A" indicates 1 nM < IC50 ≤ 100 nM. Table 3 IC50 data for inhibition of RL95-2 cell proliferation by the compounds of the present disclosure

SW48 cells = experiment: Inhibition of SW48 cell proliferation (CellTiter-Glo); format: cell-based; conditions: Homo sapiens; SW48 cells (MSI-H), 120 hours
Protocol: as §1, with “SW48” for “RL95-2”, “American ATCC cell bank” for “Cell Resource Center of Shanghai Institutes for Biological Sciences, Chinese Academy of Sciences,”, “Leibovitz's L-15” for “DMEM/F12”, “11415064)” for “A4192001)”
as §2, with “in an air” for “in a 5% CO2”, “incubator,” for “incubator, and”, “completed, 40” for “completed, 50”, “Table 2.” for “Table 3.”
The IC50 value results of the compounds of the present disclosure are represented by A, wherein "A" indicates 1 nM < IC50 ≤ 100 nM. Table 2 IC50 data for inhibition of SW48 cell proliferation by the compounds of the present disclosure

T1 sequence (Q14191 whole entry): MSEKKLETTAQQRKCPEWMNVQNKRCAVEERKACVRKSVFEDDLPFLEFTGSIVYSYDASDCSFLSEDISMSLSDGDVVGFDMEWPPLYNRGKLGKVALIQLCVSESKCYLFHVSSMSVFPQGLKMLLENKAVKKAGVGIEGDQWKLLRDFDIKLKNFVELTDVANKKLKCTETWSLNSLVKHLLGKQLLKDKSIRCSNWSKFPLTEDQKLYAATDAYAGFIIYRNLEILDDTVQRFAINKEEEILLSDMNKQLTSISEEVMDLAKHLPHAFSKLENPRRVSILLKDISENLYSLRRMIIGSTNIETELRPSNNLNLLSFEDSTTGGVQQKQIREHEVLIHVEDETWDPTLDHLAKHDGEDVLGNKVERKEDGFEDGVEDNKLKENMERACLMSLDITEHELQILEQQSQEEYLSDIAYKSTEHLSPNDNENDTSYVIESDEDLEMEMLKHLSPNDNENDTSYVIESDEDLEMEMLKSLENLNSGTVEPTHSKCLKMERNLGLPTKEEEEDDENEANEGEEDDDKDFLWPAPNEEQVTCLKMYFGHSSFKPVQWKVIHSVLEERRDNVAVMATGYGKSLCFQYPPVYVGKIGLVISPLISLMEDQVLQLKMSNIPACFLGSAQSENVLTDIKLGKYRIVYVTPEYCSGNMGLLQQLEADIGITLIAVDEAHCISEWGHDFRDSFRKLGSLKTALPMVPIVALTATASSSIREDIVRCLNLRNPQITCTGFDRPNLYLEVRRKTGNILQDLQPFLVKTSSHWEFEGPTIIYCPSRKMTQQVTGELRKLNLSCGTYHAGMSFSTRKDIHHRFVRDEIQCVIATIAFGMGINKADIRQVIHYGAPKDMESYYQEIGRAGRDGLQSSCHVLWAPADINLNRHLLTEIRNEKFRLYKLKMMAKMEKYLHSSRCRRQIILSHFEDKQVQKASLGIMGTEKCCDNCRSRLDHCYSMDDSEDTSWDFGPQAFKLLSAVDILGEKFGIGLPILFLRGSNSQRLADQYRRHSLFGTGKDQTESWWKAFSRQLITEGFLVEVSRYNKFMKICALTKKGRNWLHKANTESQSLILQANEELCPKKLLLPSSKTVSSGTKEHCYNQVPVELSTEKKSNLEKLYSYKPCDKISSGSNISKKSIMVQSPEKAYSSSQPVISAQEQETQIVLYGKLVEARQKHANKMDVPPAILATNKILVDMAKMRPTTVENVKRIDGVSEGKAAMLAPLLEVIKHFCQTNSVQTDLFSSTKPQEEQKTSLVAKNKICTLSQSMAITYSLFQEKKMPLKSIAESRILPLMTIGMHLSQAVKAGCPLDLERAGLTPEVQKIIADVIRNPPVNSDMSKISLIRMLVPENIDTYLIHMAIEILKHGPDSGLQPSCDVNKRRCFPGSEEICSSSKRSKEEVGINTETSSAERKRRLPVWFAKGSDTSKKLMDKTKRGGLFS

Row | SMILES | IC50 (recombinant human WRN) | IC50 (RL95-2 cells) | IC50 (SW48 cells)
1 | CCc1c(N2CCN(C(=O)c3ncnc(C)c3O)CC2)c(=O)n2nc(-c3nc4ccccc4s3)nc2n1CC(=O)Nc1ccc(C(F)(F)F)cc1Cl [Example 133, 2-(2-(benzo[d]thiazol-2-yl)-5-ethyl-6-(4-(5-hydroxy-6-methylpyrimidine-4-carbonyl)piperazin-1-yl)-7-oxo-[1,2,4]triazolo[1,5-a]pyrimidin-4(7H)-yl)-N-(2-chloro-4-(trifluoromethyl)phenyl)acetamide] | 1 to 100 nM | 1 to 100 nM | 1 to 100 nM
2 | CCc1c(N2CCN(C(=O)c3ncccc3O)CC2)c(=O)n2nc(C3=CC4CC(OC)CC4C3)nc2n1CC(=O)Nc1ccc(C(F)(F)F)cc1Cl (stereo not drawn) [Example 186, N-(2-chloro-4-(trifluoromethyl)phenyl)-2-(5-ethyl-6-(4-(3-hydroxypicolinoyl)piperazin-1-yl)-2-(5-methoxy-1,3a,4,5,6,6a-hexahydropentalen-2-yl)-7-oxo-[1,2,4]triazolo[1,5-a]pyrimidin-4(7H)-yl)acetamide] | 1 to 100 nM | 1 to 100 nM | 1 to 100 nM
3 | CCc1c(N2CCN(C(=O)c3ncnc(C)c3O)CC2)c(=O)n2nc(-c3ccc4cc[nH]c4c3)nc2n1CC(=O)Nc1ccc(C(F)(F)F)cc1Cl [Example 123, N-(2-chloro-4-(trifluoromethyl)phenyl)-2-(5-ethyl-6-(4-(5-hydroxy-6-methylpyrimidine-4-carbonyl)piperazin-1-yl)-2-(1H-indo1-6-yl)-7-oxo-[1,2,4]triazolo[1,5-a]pyrimidin-4(7H)-yl)acetamide] | 1 to 100 nM | 1 to 100 nM | 1 to 100 nM
4 | CCc1c(N2CCN(C(=O)c3ncnc(C)c3O)CC2)c(=O)n2nc(-c3ccc4occc4c3)nc2n1CC(=O)Nc1ccc(S(F)(F)(F)(F)F)cc1Cl [Example 85, 2-(2-(Benzofuran-5-yl)-5-ethyl-6-(4-(5-hydroxy-6-methylpyrimidine-4-carbonyl)piperazin-1-yl)-7-oxo-[1,2,4]triazolo[1,5-a]pyrimidin-4(7H)-yl)-N-(2-chloro-4-(pentafluoro-λ^6-sulfaneyl)phenyl) acetamide] | 1 to 100 nM | 1 to 100 nM | 1 to 100 nM
5 | CCc1c(N2CCN(C(=O)c3ncnc(C)c3O)CC2)c(=O)n2nc(-c3cc4ccccc4o3)nc2n1CC(=O)Nc1ccc(C(F)(F)F)cc1Cl [Example 19, 2-(2-(benzofuran-2-yl)-5-ethyl-6-(4-(5-hydroxy-6-methylpyrimidine-4-carbonyl)piperazin-1-yl)-7-oxo-[1,2,4]triazolo[1,5-a]pyrimidin-4(7H)-yl)-N-(2-chloro-4-(trifluoromethyl)phenyl)acetamide] | < 1 nM | 1 to 100 nM | 1 to 100 nM
6 | CCc1c(N2CCN(C(=O)c3ncnc(C)c3O)CC2)c(=O)n2nc(C3=CCCCCC3)nc2n1CC(=O)Nc1ccc(C(F)(F)F)cc1F [Example 49, 2-(2-(cyclohept-1-en-1-yl)-5-ethyl-6-(4-(5-hydroxy-6-methylpyrimidine-4-carbonyl)piperazin-1-yl)-7-oxo-[1,2,4]triazolo[1,5-a]pyrimidin-4(7H)-yl)-N-(2-fluoro-4-(trifluoromethyl)phenyl)acetamide] | 1 to 100 nM | 1 to 100 nM | 1 to 100 nM
7 | CCc1c(N2CCN(C(=O)c3ncnc(C)c3O)CC2)c(=O)n2nc(-c3cc4c(s3)CCNC4)nc2n1CC(=O)Nc1ccc(C(F)(F)F)cc1Cl [Example 134, N-(2-chloro-4-(trifluoromethyl)phenyl)-2-(5-ethyl-6-(4-(5-hydroxy-6-methylpyrimidine-4-carbonyl)piperazin-1-yl)-7-oxo-2-(4,5,6,7-tetrahydrothieno[3,2-c]pyridin-2-yl)-[1,2,4]triazolo[1,5-a]pyrimidin-4(7H)-yl)acetamide] | 1 to 100 nM | 1 to 100 nM | 1 to 100 nM
8 | CCc1c(N2CCN(C(=O)c3ncnc(C)c3O)CC2)c(=O)n2nc(-c3ccc4c(c3)CNCCO4)nc2n1CC(=O)Nc1ccc(C(F)(F)F)cc1Cl [Example 142, N-(2-chloro-4-(trifluoromethyl)phenyl)-2-(5-ethyl-6-(4-(5-hydroxy-6-methylpyrimidine-4-carbonyl)piperazin-1-yl)-7-oxo-2-(2,3,4,5-tetrahydrobenzo[f][1,4]oxazepin-7-yl)-[1,2,4]triazolo[1,5-a]pyrimidin-4(7H)-yl)acetamide] | 1 to 100 nM | 1 to 100 nM | 1 to 100 nM
9 | CCc1c(N2CCN(C(=O)c3ncnc(C)c3O)CC2)c(=O)n2nc(-c3ccc4c(ccn4CC)c3)nc2n1CC(=O)Nc1ccc(C(F)(F)F)cc1Cl [Example 183, N-(2-chloro-4-(trifluoromethyl)phenyl)-2-(5-ethyl-2-(1-ethyl-1H-indol-5-yl)-6-(4-(5-hydroxy-6-methylpyrimidine-4-carbonyl)piperazin-1-yl)-7-oxo-[1,2,4]triazolo[1,5-a]pyrimidin-4(7H)-yl)ace tamide] | 1 to 100 nM | 1 to 100 nM | 1 to 100 nM
10 | CCc1c(N2CCN(C(=O)c3ncnc(C)c3O)CC2)c(=O)n2nc(-c3ccc4cn[nH]c4c3)nc2n1CC(=O)Nc1ccc(C(F)(F)F)cc1Cl [Example 156, N-(2-chloro-4-(trifluoromethyl)phenyl)-2-(5-ethyl-6-(4-(5-hydroxy-6-methylpyrimidine-4-carbonyl)piperazin-1-yl)-2-(1H-indazol-6-yl)-7-oxo-[1,2,4]triazolo[1,5-a]pyrimidin-4(7H)-yl)acetamide] | 1 to 100 nM | 1 to 100 nM | 1 to 100 nM
11 | CCc1c(C2=CCN(C(=O)c3ncnc(C)c3O)CC2)c(=O)n2nc(-c3ccc4c(c3)CCO4)nc2n1CC(=O)Nc1ccc(C(F)(F)F)cc1Cl [Example 149, N-(2-chloro-4-(trifluoromethyl)phenyl)-2-(2-(2,3-dihydrobenzofuran-5-yl)-5-ethyl-6-(1-(5-hydroxy-6-methylpyrimidine-4-carbonyl)-1,2,3,6-tetrahydropyridin-4-yl)-7-oxo-[1,2,4]triazolo[1,5-a]pyrimidin-4(7H)-yl)acetamide] | 1 to 100 nM | 1 to 100 nM | 1 to 100 nM
12 | CCc1c(N2CCN(C(=O)c3ncnc(C)c3O)CC2)c(=O)n2nc(C3=CCC4(CC3)CC4)nc2n1CC(=O)Nc1ccc(S(F)(F)(F)(F)F)cc1 [Example 120, 2-(5-ethyl-6-(4-(5-hydroxy-6-methylpyrimidine-4-carbonyl)piperazin-1-yl)-7-oxo-2-(spiro[2.5]oct-5-en-6-yl)-[1,2,4]triazolo[1,5-a]pyrimidin-4(7H)-yl)-N-(4-(pentafluoro-λ6-sulfaneyl)phenyl)ace tamide] | 1 to 100 nM | 1 to 100 nM | 1 to 100 nM
13 | CCc1c(N2CCN(C(=O)c3ncnc(C)c3O)CC2)c(=O)n2nc(-c3ccc4c(ccn4C(C)C)c3)nc2n1CC(=O)Nc1ccc(C(F)(F)F)cc1Cl [Example 184, N-(2-chloro-4-(trifluoromethyl)phenyl)-2-(5-ethyl-6-(4-(5-hydroxy-6-methylpyrimidine-4-carbonyl)piperazin-1-yl)-2-(1-isopropyl-1H-indol-5-yl)-7-oxo-[1,2,4]triazolo[1,5-a]pyrimidin-4(7H)-yl) acetamide] | 1 to 100 nM | 1 to 100 nM | 1 to 100 nM
